In patent US4578392A, “Pyrazolo[1,5-a]pyridine derivatives and anti-allergic compositions containing them” (Kyorin Pharmaceutical Co., Ltd., priority 1983, dated 1986):

What was measured:
[1] = test system: SRS-A-induced component of anaphylactic bronchoconstriction; assay: Inhibitory activity on bronchial anaphylaxis in conscious guinea pigs (SRS-A preferentially involved in bronchoconstriction); assay type: in vivo, guinea pig; details: Cavia porcellus; oral; actively sensitized (egg albumin) conscious guinea pigs, 10 mg/kg diphenhydramine intraperitoneally, inhaled antigen; read-out: ED75 (oral dose required to protect 75% of animals from respiratory distress caused by antigen challenge)
Method: The effect of the compounds of this invention on bronchial anaphylactic reaction in vivo was evaluated using conscious guinea pigs in a condition where SRS-A was preferentially involved in bronchoconstriction (Boot, J. R. et al.: Int. Arch. Allergy Appl. Immunol. 67, 340 (1982)). The guinea pigs which had been sensitized actively with egg albumin 3 to 4 weeks prior were given intraperitoneally with 10 mg/kg diphenhydramine. In these animals, inhaled antigen caused a marked respiratory distress due to bronchoconstriction. The ED75 values in Table 7 indicate the oral dose of test compound required to protect 75% of animals from respiratory distress caused by antigen challenge.

SRS-A = assay: Antagonistic action against SRS-A (SRS-A induced contraction of isolated guinea pig ileum); details: 3 U/ml SRS-A, 5 minutes incubation, tripelennamine and atropine in Tyrode solution
Method: The anti-SRS-A action of the compounds of this invention was evaluated using isolated guinea pig ileum. Short segments of guinea pig terminal ileum were suspended in Tyrode solution containing tripelennamine (3×10^-7 g/ml) and atropine (3×10^-7 g/ml) and their contractions induced by an addition to the organ bath of 3 U/ml SRS-A* were recorded. The ileum was again contracted after incubation with test compounds for 5 minutes by adding the same amount of SRS-A. The anti-SRS-A action is given in Table 6 as IC50 values which indicate the concentration of test compound required to inhibit SRS-A induced ileal contraction by 50%.
*: The SRS-A used in this experiment was prepared from anaphylactic guinea pig lungs. One unit of SRS-A refers to the amount required to produce a contraction of the guinea pig ileum equal in amplitude to that produced by 5 ng histamine base.

In the case of Cn1c(=O)c2[nH]cnc2n(C)c1=O [Aminophylline, reference compound], the ED75 [1] is reported as 3.5 mg/kg.
In the case of CC(C)c1nn2ccccc2c1C(O)C(C)C (centres unmarked) [Example 5, 2-Isopropyl-3-(1-hydroxy-2-methylpropyl)pyrazolo[1,5-a]pyridine], the “Antagonistic activity against SRS-A IC50” value (SRS-A) is reported as 1.75 µg/mL and the ED75 [1] is reported as 0.48 mg/kg.
CC(C)c1nn2ccccc2c1C(O)C1CCCC1 (centres unmarked) [Example 6] was tested, and the “Antagonistic activity against SRS-A IC50” value (SRS-A) was 10.3 µg/mL.
For CCC(O)c1c(C(C)C)nn2ccccc12 (centres unmarked) [Example 8, 2-isopropyl-3-(1-hydroxypropyl)pyrazolo[1,5-a]pyridine], the “Antagonistic activity against SRS-A IC50” value (SRS-A) was 27 µg/mL.
With CCCC(O)c1c(C(C)C)nn2ccccc12 (centres unmarked) [Example 9] the “Antagonistic activity against SRS-A IC50” value (SRS-A) was 26.8 µg/mL.
In the case of Cc1nn2ccccc2c1C(O)C(C)C (centres unmarked) [Example 10], the “Antagonistic activity against SRS-A IC50” value (SRS-A) is reported as 10.3 µg/mL.
For CCCc1nn2ccccc2c1C(O)CCC (centres unmarked) [Example 11], the “Antagonistic activity against SRS-A IC50” value (SRS-A) was 16.4 µg/mL.
For COc1ccc2c(C(O)C(C)C)c(C(C)C)nn2c1 (centres unmarked) [Example 13], the “Antagonistic activity against SRS-A IC50” value (SRS-A) was 4.9 µg/mL and the ED75 [1] was 0.5 mg/kg.
In the case of CCC(O)(c1c(C(C)C)nn2ccccc12)C(C)C (centres unmarked) [Example 15, 2-Isopropyl-3-(1-hydroxy-1-ethyl-2-methylpropyl)pyrazolo[1,5-a]pyridine], the “Antagonistic activity against SRS-A IC50” value (SRS-A) is reported as 1.75 µg/mL and the ED75 [1] is reported as 0.68 mg/kg.
For CC(C)c1nn2ccccc2c1C(C)(O)C(C)C (centres unmarked) [Example 16], the “Antagonistic activity against SRS-A IC50” value (SRS-A) was 23.5 µg/mL.
With CCCC(O)(c1c(C(C)C)nn2ccccc12)C(C)C (centres unmarked) [Example 17] the “Antagonistic activity against SRS-A IC50” value (SRS-A) was 2.03 µg/mL and the ED75 [1] was 0.75 mg/kg.
With CCCCC(O)(c1c(C(C)C)nn2ccccc12)C(C)C (centres unmarked) [Example 18] the “Antagonistic activity against SRS-A IC50” value (SRS-A) was 0.84 µg/mL and the ED75 [1] was 0.5 mg/kg.
CCCCCCC(O)(c1c(C(C)C)nn2ccccc12)C(C)C (centres unmarked) [Example 19] was tested, and the “Antagonistic activity against SRS-A IC50” value (SRS-A) was 2.14 µg/mL.
With C=CCC(O)(c1c(C(C)C)nn2ccccc12)C(C)C (centres unmarked) [Example 20] the “Antagonistic activity against SRS-A IC50” value (SRS-A) was 1.51 µg/mL and the ED75 [1] was 0.5 mg/kg.
For COC(c1c(C(C)C)nn2ccccc12)C(C)C (centres unmarked) [Example 21, 2-Isopropyl-3-(1-methoxy-2-methylpropyl)pyrazolo[1,5-a]pyridine], the “Antagonistic activity against SRS-A IC50” value (SRS-A) was 6.6 µg/mL and the ED75 [1] was 0.36 mg/kg.
In the case of CCOC(c1c(C(C)C)nn2ccccc12)C(C)C (centres unmarked) [Example 22], the “Antagonistic activity against SRS-A IC50” value (SRS-A) is reported as 7.2 µg/mL.
For C=CCOC(c1c(C(C)C)nn2ccccc12)C(C)C (centres unmarked) [Example 23], the “Antagonistic activity against SRS-A IC50” value (SRS-A) was 1.06 µg/mL and the ED75 [1] was 0.5 mg/kg.
In the case of CCCOC(c1c(C(C)C)nn2ccccc12)C(C)C (centres unmarked) [Example 24], the “Antagonistic activity against SRS-A IC50” value (SRS-A) is reported as 5.09 µg/mL.
With CCCCOC(c1c(C(C)C)nn2ccccc12)C(C)C (centres unmarked) [Example 25] the “Antagonistic activity against SRS-A IC50” value (SRS-A) was 9.98 µg/mL.
COC(c1c(C(C)C)nn2cc(C)ccc12)C(C)C (centres unmarked) [Example 26] was tested, and the “Antagonistic activity against SRS-A IC50” value (SRS-A) was 18.4 µg/mL.
C=CCOC(c1c(C(C)C)nn2cc(C)ccc12)C(C)C (centres unmarked) [Example 27] was tested, and the “Antagonistic activity against SRS-A IC50” value (SRS-A) was 3.93 µg/mL.
In the case of COc1ccc2c(C(OC)C(C)C)c(C(C)C)nn2c1 (centres unmarked) [Example 28], the “Antagonistic activity against SRS-A IC50” value (SRS-A) is reported as 7.36 µg/mL.
For C=CCOC(c1c(C(C)C)nn2cc(OC)ccc12)C(C)C (centres unmarked) [Example 29], the “Antagonistic activity against SRS-A IC50” value (SRS-A) was 3.84 µg/mL.
CCC(OC)(c1c(C(C)C)nn2ccccc12)C(C)C (centres unmarked) [Example 30] was tested, and the “Antagonistic activity against SRS-A IC50” value (SRS-A) was 1.52 µg/mL and the ED75 [1] was 1 mg/kg.
C=CCOC(CC)(c1c(C(C)C)nn2ccccc12)C(C)C (centres unmarked) [Example 31, 2-isopropyl-3-(1-allyloxy-1-ethyl-2-methylpropyl)pyrazolo[1,5-a]pyridine] was tested, and the “Antagonistic activity against SRS-A IC50” value (SRS-A) was 0.27 µg/mL and the ED75 [1] was 0.5 mg/kg.
For C=CCOC(CCC)(c1c(C(C)C)nn2ccccc12)C(C)C (centres unmarked) [Example 32], the “Antagonistic activity against SRS-A IC50” value (SRS-A) was 0.52 µg/mL and the ED75 [1] was 2 mg/kg.
C=CCOC(CCCC)(c1c(C(C)C)nn2ccccc12)C(C)C (centres unmarked) [Example 33] was tested, and the “Antagonistic activity against SRS-A IC50” value (SRS-A) was 2.36 µg/mL.
In the case of CC(C)c1nn2ccccc2c1C(OCC1CO1)C(C)C (centres unmarked) [Example 34, 2-isopropyl-3-[1-(2,3-epoxypropoxy)-2-methylpropyl]pyrazolo[1,5-a]pyridine], the “Antagonistic activity against SRS-A IC50” value (SRS-A) is reported as 7.33 µg/mL.
With CCCOC(CC)(c1c(C(C)C)nn2ccccc12)C(C)C (centres unmarked) [Example 35, 2-Isopropyl-3-(1-ethyl-1-propoxy-2-methylpropyl)pyrazolo[1,5-a]pyridine] the “Antagonistic activity against SRS-A IC50” value (SRS-A) was 1.23 µg/mL and the ED75 [1] was 0.5 mg/kg.
CC(O)COC(c1c(C(C)C)nn2ccccc12)C(C)C (centres unmarked) [Example 36, 2-Isopropyl-3-[1-(2-hydroxypropoxy)-2-methylpropyl]pyrazolo[1,5-a]pyridine] was tested, and the “Antagonistic activity against SRS-A IC50” value (SRS-A) was 14.9 µg/mL.
COCc1c(C(C)C)nn2ccccc12 [Example 37, 2-Isopropyl-3-methoxymethylpyrazolo[1,5-a]pyridine] was tested, and the “Antagonistic activity against SRS-A IC50” value (SRS-A) was 14.7 µg/mL.
With CCCc1c(C(C)C)nn2ccccc12 [Example 39, 2-Isopropyl-3-propylpyrazolo[1,5-a]pyridine] the “Antagonistic activity against SRS-A IC50” value (SRS-A) was 2.8 µg/mL.
With CC(C)=Cc1c(C(C)C)nn2ccccc12 [Example 40] the “Antagonistic activity against SRS-A IC50” value (SRS-A) was 2.7 µg/mL.
With C=C(c1c(C(C)C)nn2ccccc12)C(C)C [Example 41] the “Antagonistic activity against SRS-A IC50” value (SRS-A) was 2.45 µg/mL.
For CC=C(c1c(C(C)C)nn2ccccc12)C(C)C [Example 42], the “Antagonistic activity against SRS-A IC50” value (SRS-A) was 0.44 µg/mL.
In the case of CC(C)Cc1c(C(C)C)nn2ccccc12 [Example 43], the “Antagonistic activity against SRS-A IC50” value (SRS-A) is reported as 2.7 µg/mL.
For CC(C)c1nn2ccccc2c1C(C)C(C)C (centres unmarked) [Example 44], the “Antagonistic activity against SRS-A IC50” value (SRS-A) was 1.6 µg/mL and the ED75 [1] was 0.5 mg/kg.
